pIC50: −log10 of the molar value.
Molecular target: T1, tyrosinase
T1 construct: gene PPO1; tyrosinase of unstated source and supplier
Assay: L-tyrosine oxidation, absorbance at […] nm
Assay type: biochemical
Conditions: L-tyrosine substrate (0.1 mg/mL stock, 40 μL in 200 μL); PBS; 37 °C; 30 min

pIC50: 4.46
Compound: CCCCCCCCCCCC(=O)OC[C@H]1O[C@H](Oc2ccc(O)cc2)[C@H](O)[C@@H](O)[C@@H]1O [6′-O-lauroylarbutin]
